In patent US8912184B1, “Therapeutic and diagnostic methods” (Alzheimer's Institute of America, Inc., priority 2010, dated 2014):
Read-outs that look alike come from different tables or passages of the source.

System: cancer cell lines
Test: Standard Cytotoxicity Assay for other cancer cell types (TC50, CellTiter-Glo)
Format: cell-based
Experimental: Approximately 24 hours later, test compound was added from serial dilutions prepared in DMSO from DMSO stock solutions.

With `O=C(NCc1cccnc1)Nc1ccc(COc2ccccc2-c2ccccc2)cc1` [Exemplary Compound A, 1-{4-[(biphenyl-2-yloxy)methyl]phenyl}-3-(pyridin-3-ylmethyl)urea] the CC50 (Homo sapiens, MDA-MB-231, 168 h, MDA-MB-231 (breast), 7 DAY, read-out: TC50 (the source's name)) was 7.5 nM, the CC50 (Homo sapiens, MDA-MB-231, 168 h, MDA-MB-231 cells (breast), 7 day, read-out: Cmpd A 7 day TC50) was 8 nM and the CC50 (Homo sapiens, MDA-MB-436, 72 h, MDA-MB-436 cells (breast), 3 day, read-out: Cmpd A 3 day TC50) was 17 nM. The CC50 (Homo sapiens, MIA PaCa-2, 72 h, MIA PaCa-2 (pancreatic), 3 DAY, read-out: TC50 (the source's name)) was 1.8 nM, the CC50 (Homo sapiens, MIA PaCa-2, 72 h, MiaPaCa2 cells (pancreas), 3 day, read-out: Cmpd A 3 day TC50) was 1.8 nM and the CC50 (Homo sapiens, MIA PaCa-2, 168 h, MIA PaCa-2 (pancreatic), 7 DAY, read-out: TC50 (the source's name)) was 0.4 nM. The CC50 (Homo sapiens, MIA PaCa-2, 168 h, MiaPaCa2 cells (pancreas), 7 day, read-out: Cmpd A 7 day TC50) was 0.4 nM, the CC50 (Homo sapiens, MM1.S, 72 h, MM.1S cells (myeloma), 3 day, read-out: Cmpd A 3 day TC50) was 1.2 nM and the CC50 (Homo sapiens, Malme-3M, 72 h, MALME-3M cells (melanoma (lung metastasis)), 3 day, read-out: Cmpd A 3 day TC50) was 2.5 nM. For the same compound, the CC50 (Homo sapiens, NB-4, 72 h, NB-4 cells (myelogenous leukemia), 3 day, read-out: Cmpd A 3 day TC50) was under 0.8 nM, the CC50 (Homo sapiens, NCI-H69, 72 h, NCI-H69 (SCLC), 3 DAY, read-out: TC50 (the source's name)) was 1 nM and the CC50 (Homo sapiens, NCI-H69, 72 h, NCI-H69 cells (lung (small cell)), 3 day, read-out: Cmpd A 3 day TC50) was 1 nM. The CC50 (Homo sapiens, NCI-H82, 72 h, NCI-H82 (SCLC), 3 DAY, read-out: TC50 (the source's name)) was 1.1 nM, the CC50 (Homo sapiens, NCI-H226, 72 h, NCI-H226 cells (lung (NSCLC)), 3 day, read-out: Cmpd A 3 day TC50) was 62 nM and the CC50 (Homo sapiens, NCI-H460, 72 h, NCI-H460 (NSCLC), 3 DAY, read-out: TC50 (the source's name)) was 15.4 nM. It also gave a CC50 (Homo sapiens, NCI-H460, 72 h, NCI-H460 cells (lung (NSCLC)), 3 day, n = 9, read-out: Cmpd A 3 day TC50) of 26 nM, a CC50 (Homo sapiens, NCI-H460, 168 h, NCI-H460 cells (lung (NSCLC)), 7 day, n = 8, read-out: Cmpd A 7 day TC50) of 17 nM and a CC50 (Homo sapiens, NCI-H522, 72 h, NCI-H522 (NSCLC), 3 DAY, read-out: TC50 (the source's name)) of 1 nM. The CC50 (Homo sapiens, NCI-H522, 168 h, NCI-H522 (NSCLC), 7 DAY, read-out: TC50 (the source's name)) was 0.4 nM, the CC50 (Homo sapiens, NCI-H522, 168 h, NCI-H522 cells (lung (NSCLC)), 7 day, read-out: Cmpd A 7 day TC50) was 0.4 nM and the CC50 (Homo sapiens, NCI-H929, 72 h, NCI-H929 (myeloma), 3 DAY, read-out: TC50 (the source's name)) was 2.5 nM. It also gave a CC50 (Homo sapiens, NCI-H1299, 72 h, NCI-H1299 cells (lung (NSCLC)), 3 day, read-out: Cmpd A 3 day TC50) of 4 nM, a CC50 (Homo sapiens, NCI-H1650, 72 h, NCI-H1650 (NSCLC), 3 DAY, read-out: TC50 (the source's name)) of 2.5 nM and a CC50 (Homo sapiens, NCI-H1650, 72 h, NCI-H1650 cells (lung (NSCLC)), 3 day, read-out: Cmpd A 3 day TC50) of 1.5 nM. The CC50 (Homo sapiens, NCI-N87, 72 h, NCI-N87 (gastric), 3 DAY, read-out: TC50 (the source's name)) was 0.3 nM, the CC50 (Homo sapiens, NCI-N87, 72 h, NCI-N87 cells (gastric), 3 day, read-out: Cmpd A 3 day TC50) was 0.3 nM and the CC50 (Homo sapiens, NCI-N87, 168 h, NCI-N87 (gastric), 7 DAY, read-out: TC50 (the source's name)) was 0.2 nM. For the same compound, the CC50 (Homo sapiens, NCI-N87, 168 h, NCI-N87 cells (gastric), 7 day, read-out: Cmpd A 7 day TC50) was 0.2 nM, the CC50 (Homo sapiens, NOMO-1, 72 h, NOMO-1 cells (myelogenous leukemia), 3 day, read-out: Cmpd A 3 day TC50) was under 0.8 nM and the CC50 (Homo sapiens, OCI-LY19, 72 h, OCI-LY-19 cells (lymphoma), 3 day, read-out: Cmpd A 3 day TC50) was 1.1 nM. The CC50 (Homo sapiens, OCI-LY19, 72 h, OCI-Ly19 (lymphoma), 3 DAY, read-out: TC50 (the source's name)) was 1.2 nM, the CC50 (Homo sapiens, OPM-2, 72 h, OPM-2 (myeloma), 3 DAY, read-out: TC50 (the source's name)) was 1.5 nM and the CC50 (Homo sapiens, OVCAR-3, 72 h, OVCAR3 (ovarian), 3 DAY, read-out: TC50 (the source's name)) was 1.1 nM. The CC50 (Homo sapiens, OVCAR-3, 72 h, OVCAR-3 cells (ovary), 3 day, read-out: Cmpd A 3 day TC50) was 1.1 nM, the CC50 (Homo sapiens, OVCAR-3, 168 h, OVCAR3 (ovarian), 7 DAY, read-out: TC50 (the source's name)) was 0.4 nM and the CC50 (Homo sapiens, OVCAR-3, 168 h, OVCAR-3 cells (ovary), 7 day, read-out: Cmpd A 7 day TC50) was 0.4 nM. For the same compound, the CC50 (Homo sapiens, OVCAR-4, 72 h, OVCAR-4 cells (ovary), 3 day, read-out: Cmpd A 3 day TC50) was 2.8 nM, the CC50 (Homo sapiens, OVCAR-5, 72 h, OVCAR-5 cells (ovary), 3 day, read-out: Cmpd A 3 day TC50) was 1.5 nM and the CC50 (Homo sapiens, OVCAR-8, 72 h, OVCAR-8 cells (ovary), 3 day, read-out: Cmpd A 3 day TC50) was 0.5 nM. For the same compound, the CC50 (Homo sapiens, PC-3, 72 h, PC-3 cells (prostate), 3 day, read-out: Cmpd A 3 day TC50) was under 1.5 nM, the CC50 (Homo sapiens, PFSK-1, 72 h, PFSK-1 cells (brain; malignant neuroectodermal tumor), 3 day, read-out: Cmpd A 3 day TC50) was under 0.8 nM and the CC50 (Homo sapiens, RPMI-8226, 72 h, RPMI-8226 cells (myeloma), 3 day, read-out: Cmpd A 3 day TC50) was 6 nM. The CC50 (Homo sapiens, Ramos, 72 h, Ramos cells (lymphoma), 3 day, read-out: Cmpd A 3 day TC50) was 1.8 nM, the CC50 (Homo sapiens, SF-295, 72 h, SF-295 (glioma), 3 DAY, read-out: TC50 (the source's name)) was 1.5 nM and the CC50 (Homo sapiens, SK-BR-3, 72 h, SK-BR-3 cells (breast), 3 day, read-out: Cmpd A 3 day TC50) was 6.8 nM. For the same compound, the CC50 (Homo sapiens, SK-OV-3, 72 h, SK-OV-3 cells (ovary), 3 day, read-out: Cmpd A 3 day TC50) was 1.2 nM, the CC50 (Homo sapiens, SKM-1, 72 h, SKM-1 cells (myelogenous leukemia), 3 day, read-out: Cmpd A 3 day TC50) was under 0.8 nM and the CC50 (Homo sapiens, SR, 72 h, SR cells (lymphoma), 3 day, read-out: Cmpd A 3 day TC50) was 21 nM. The CC50 (Homo sapiens, SU-DHL10, 72 h, SU-DHL-10 cells (lymphoma), 3 day, read-out: Cmpd A 3 day TC50) was 0.75 nM, the CC50 (Homo sapiens, SU-DHL-1, 72 h, SU-DHL-1 cells (lymphoma), 3 day, read-out: Cmpd A 3 day TC50) was 37 nM and the CC50 (Homo sapiens, SU-DHL-4, 72 h, SU-DHL-4 (lymphoma), 3 DAY, read-out: TC50 (the source's name)) was 1.5 nM. The CC50 (Homo sapiens, SU-DHL-4, 72 h, SU-DHL-4 cells (lymphoma), 3 day, read-out: Cmpd A 3 day TC50) was 0.84 nM, the CC50 (Homo sapiens, SU-DHL-5, 72 h, SU-DHL-5 (lymphoma), 3 DAY, read-out: TC50 (the source's name)) was 0.9 nM and the CC50 (Homo sapiens, SU-DHL-5, 72 h, SU-DHL-5 cells (lymphoma), 3 day, read-out: Cmpd A 3 day TC50) was 0.57 nM. For the same compound, the CC50 (Homo sapiens, SU-DHL-8, 72 h, SU-DHL-8 cells (lymphoma), 3 day, read-out: Cmpd A 3 day TC50) was 0.59 nM, the CC50 (Homo sapiens, SU.86.86, 72 h, SU.86.86 cells (pancreas), 3 day, read-out: Cmpd A 3 day TC50) was 4.3 nM and the CC50 (Homo sapiens, SW48, 72 h, SW-48 cells (colon), 3 day, read-out: Cmpd A 3 day TC50) was 2.3 nM. For the same compound, the CC50 (Homo sapiens, SW480, 72 h, SW 480 cells (colon), 3 day, read-out: Cmpd A 3 day TC50) was 4 nM, the CC50 (Homo sapiens, T47D, 72 h, T47D cells (breast), 3 day, read-out: Cmpd A 3 day TC50) was 0.8 nM and the CC50 (Homo sapiens, T-24, 72 h, T24 cells (bladder), 3 day, read-out: Cmpd A 3 day TC50) was 1 nM. For the same compound, the CC50 (Homo sapiens, THP-1, 72 h, THP-1 cells (lymphocytic leukemia), 3 day, read-out: Cmpd A 3 day TC50) was under 0.8 nM, the CC50 (Homo sapiens, U2OS, 72 h, U-2 OS cells (osteosarcoma), 3 day, read-out: Cmpd A 3 day TC50) was 2.2 nM and the CC50 (Homo sapiens, U-87 MG, 72 h, U-87MG (glioma), 3 DAY, read-out: TC50 (the source's name)) was 23 nM. For the same compound, the CC50 (Homo sapiens, U-87 MG, 72 h, U-87 MG cells (brain; glioblastoma/astrocytoma), 3 day, read-out: Cmpd A 3 day TC50) was 15 nM, the CC50 (Homo sapiens, U-266, 72 h, U266 cells (myeloma), 3 day, read-out: Cmpd A 3 day TC50) was 18 nM and the CC50 (Homo sapiens, U-266, 168 h, U266 cells (myeloma), 7 day, read-out: Cmpd A 7 day TC50) was 1.5 nM. The CC50 (Homo sapiens, U-937, 72 h, U-937 cells (lymphoma), 3 day, read-out: Cmpd A 3 day TC50) was 1 nM, the CC50 (Homo sapiens, UACC-257, 72 h, UACC-257 cells (melanoma), 3 day, read-out: Cmpd A 3 day TC50) was 27 nM and the CC50 (Homo sapiens, VCaP, 72 h, VCaP cells (prostate), 3 day, n = 2, read-out: Cmpd A 3 day TC50) was over 10000 nM. It also gave a CC50 (Homo sapiens, VCaP, 168 h, VCaP cells (prostate), 7 day, read-out: Cmpd A 7 day TC50) of 14 nM, a CC50 (Hs766T, 72 h, Hs 766T cells (pancreas), 3 day, read-out: Cmpd A 3 day TC50) of 4.7 nM and a CC50 (L-82, 72 h, L-82 cells (lymphoma), 3 day, read-out: Cmpd A 3 day TC50) of 32 nM. It also gave a CC50 (MLE12, 72 h, MLE-12 cells (mouse; lung), 3 day, read-out: Cmpd A 3 day TC50) of 4 nM, a CC50 (MM.1R, 72 h, MM.1R cells (myeloma), 3 day, read-out: Cmpd A 3 day TC50) of 1.5 nM and a CC50 (Mus musculus, B16-F10, 72 h, B16-F10 cells (mouse; melanoma), 3 day, read-out: Cmpd A 3 day TC50) of 80 nM. It also gave a CC50 (Mus musculus, Hepa1-6, 72 h, Hepa1-6 cells (mouse; hepatoma), 3 day, read-out: Cmpd A 3 day TC50) of 2.5 nM, a CC50 (Mus musculus, RAW264.7, 72 h, RAW264.7 cells (mouse; leukemia), 3 day, read-out: Cmpd A 3 day TC50) of 14 nM and a CC50 (OVCAR-3 cells (ovary), 3 day, read-out: Cmpd A 3 day TC50) of under 0.8 nM. The CC50 (OVCAR-8 cells (ovary), 3 day, read-out: Cmpd A 3 day TC50) was under 0.8 nM, the CC50 (SR-786, 72 h, SR-786 cells (lymphoma), 3 day, read-out: Cmpd A 3 day TC50) was 1.1 nM and the CC50 (SU-DHL-10 cells (lymphoma), 3 day, read-out: Cmpd A 3 day TC50) was 0.83 nM. The CC50 (SUP-M2, 72 h, SUP-M2 cells (lymphoma), 3 day, read-out: Cmpd A 3 day TC50) was 2.2 nM, the CC50 (T47D cells (breast), 3 day, read-out: Cmpd A 3 day TC50) was under 1.5 nM and the CC50 (U266 cells (myeloma), 3 day, read-out: Cmpd A 3 day TC50) was 10.3 nM. For the same compound, the CC50 (U-937 cells (lymphoma), 3 day, read-out: Cmpd A 3 day TC50) was 0.89 nM and the CC50 (UWB1289, 72 h, UWB1.289 cells (ovary), 3 day, read-out: Cmpd A 3 day TC50) was 2.4 nM.
